Reference: paper PMC4321733 (Bioorganic & medicinal chemistry letters, 2014)

The compounds below were run against PDE10A (Homo sapiens, UniProt Q9Y233) (assay: scintillation proximity assay). Conditions: ratio of IC50 values.
Chain of PDE10A (Q9Y233 whole entry): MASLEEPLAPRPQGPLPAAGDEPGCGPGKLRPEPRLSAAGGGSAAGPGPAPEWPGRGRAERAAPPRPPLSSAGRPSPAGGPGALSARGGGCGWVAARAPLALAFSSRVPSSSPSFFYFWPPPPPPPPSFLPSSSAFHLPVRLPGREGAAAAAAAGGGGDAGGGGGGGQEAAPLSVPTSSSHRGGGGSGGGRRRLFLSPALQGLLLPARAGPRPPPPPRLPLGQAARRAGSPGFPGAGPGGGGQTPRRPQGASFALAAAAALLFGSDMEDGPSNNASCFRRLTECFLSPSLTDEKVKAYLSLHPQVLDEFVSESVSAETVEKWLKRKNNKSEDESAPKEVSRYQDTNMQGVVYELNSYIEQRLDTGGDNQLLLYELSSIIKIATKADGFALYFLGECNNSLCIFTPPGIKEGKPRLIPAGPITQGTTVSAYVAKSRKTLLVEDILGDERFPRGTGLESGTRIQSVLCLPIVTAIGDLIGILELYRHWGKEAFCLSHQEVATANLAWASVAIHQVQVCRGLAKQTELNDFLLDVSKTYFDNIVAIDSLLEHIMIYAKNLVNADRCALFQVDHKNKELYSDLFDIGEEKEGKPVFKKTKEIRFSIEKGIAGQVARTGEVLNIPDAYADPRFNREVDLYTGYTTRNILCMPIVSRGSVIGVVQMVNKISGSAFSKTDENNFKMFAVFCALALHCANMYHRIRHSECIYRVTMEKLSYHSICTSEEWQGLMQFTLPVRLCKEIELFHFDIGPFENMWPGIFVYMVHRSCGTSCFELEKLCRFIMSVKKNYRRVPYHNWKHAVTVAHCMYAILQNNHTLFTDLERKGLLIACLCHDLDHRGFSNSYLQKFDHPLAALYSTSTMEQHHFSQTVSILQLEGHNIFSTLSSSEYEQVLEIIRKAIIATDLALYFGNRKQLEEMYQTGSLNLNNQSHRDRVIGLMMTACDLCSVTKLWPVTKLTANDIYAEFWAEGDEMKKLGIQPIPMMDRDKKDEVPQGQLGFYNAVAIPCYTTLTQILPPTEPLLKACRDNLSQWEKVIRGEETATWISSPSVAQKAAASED

in vitro selectivity for PDE10A over PDE3A/3B, PDE4A/4B | SMILES
> 1,000 fold | COc1cc2nncc(-c3cnc(N4CCC(O)(c5cccnc5)CC4)c(C)c3)c2cc1OC [Compound 26a]
> 1,000 fold | COc1cc2nncc(-c3cnc(N4CCC(O)(c5ccc(F)nc5)CC4)c(C)c3)c2cc1OC [Compound 26b]
> 1,000 fold | Cn1c(C(=O)c2ccc(Oc3ncccc3-c3cccnc3)cc2)nc2ccccc21 [Compound 33c]
